Article PMC10191551, “Safety, Tolerability, and Pharmacokinetics of Oral Ferric Maltol in Children With Iron Deficiency: Phase 1 Study” (JPGN Reports, 2021)

Legend:
[1] = Phase 1 study: safety and tolerability (adverse events, vital signs, ECG, laboratory tests, compliance) of oral ferric maltol; conditions: for Patients With an AE: Any AE: safety population
From the text: This phase 1, randomized, open-label, parallel-group pharmacokinetic study involved children seen as outpatients at 6 centers in the UK: Alder Hey Children’s NHS Foundation Trust; King’s College Hospital NHS Foundation Trust; University Hospitals of Leicester NHS Trust; Nottingham University Hospitals NHS Trust; Manchester University NHS Foundation Trust; and University College London Hospitals NHS Foundation Trust. […] Children aged 16 years or older and parents or guardians of children younger than 16 years provided written informed consent to participate before study initiation.
Children aged 10–17 years with confirmed iron deficiency at screening (defined as either ferritin <30 µg/L or ferritin <50 µg/L with transferrin saturation [TSAT] <20%) were eligible for inclusion in the study. Patients with or without anemia could be enrolled, provided hemoglobin was ≥8.5 g/dL at screening. Girls of childbearing potential had to agree to use adequate contraception during and until 4 weeks after the end of the study.
The study comprised a screening period followed by a 10-day randomized treatment period and a post-treatment safety follow-up. Children were randomized 1:1:1 (stratified by age [10–14 vs 15–17 years] and sex) to ferric maltol 7.8 mg, 16.6 mg, or 30 mg twice daily (b.d.) for 9 days and once in the morning of day 10. The first and last doses of ferric maltol were taken in the presence of the investigator. Children took each dose with a glass of water 1 hour before or 2 hours after a meal. Doses were based on daily elemental iron requirements for the broad range of body weights of participants likely to be enrolled, with the aim of finding a minimum effective dose in this age group. The 30 mg b.d. adult dosage was chosen as the highest exposure; dosages of 16.6 mg b.d. and 7.8 mg b.d. were chosen as approximately one-half and one-quarter of the adult dose, respectively, with the exact dose depending on the full fill of available capsule shell sizes.
The primary objectives were to assess iron uptake and ferric maltol pharmacokinetics. Serum iron and TSAT provided measures of iron uptake. In adults, dissociated maltol undergoes rapid glucuronidation and is cleared in urine as maltol glucuronide (36); therefore, in this study, plasma maltol glucuronide was measured to confirm the rate of clearance in children. The secondary objective was to assess the safety and tolerability of ferric maltol in terms of vital signs, AEs, concomitant medications, 12-lead electrocardiograms, and clinical laboratory blood tests.
Safety analyses were conducted in all patients who received at least 1 dose of the study medication and had at least 1 subsequent visit (the safety population). […] Clinically significant changes from baseline in vital signs, physical examination, and routine clinical laboratory abnormalities were also recorded.

[2] = cited from earlier work
[3] = Phase 1 study: iron uptake (serum iron and TSAT) after oral ferric maltol; type: in vivo, children; conditions: 7.8, 16.6, 30 mg b.d.
From the text: Serum iron and TSAT provided measures of iron uptake.

Cc1occc(=O)c1[O-].Cc1occc(=O)c1[O-].Cc1occc(=O)c1[O-].[Fe+3] [Ferric maltol]
Patients with a TEAE: Tonsillitis ([1]; 30 mg b.d. (n = 12)): 0 (0.0) n (%) | Patients with a TEAE: Vomiting ([1]; 30 mg b.d. (n = 12)): 0 (0.0) n (%) | TEAEs by system organ class: Cardiac disorders ([1]; 30 mg b.d. (n = 12)): 0 (0.0) n (%) | TEAEs by system organ class: Gastrointestinal disorders ([1]; 30 mg b.d. (n = 12)): 6 (50.0) n (%) | TEAEs by system organ class: General disorders and administration-site conditions ([1]; 30 mg b.d. (n = 12)): 2 (16.7) n (%) | TEAEs by system organ class: Injury, poisoning, and procedural complications ([1]; 30 mg b.d. (n = 12)): 1 (8.3) n (%) | TEAEs by system organ class: Neoplasms benign, malignant, and unspecified ([1]; 30 mg b.d. (n = 12)): 0 (0.0) n (%) | TEAEs by system organ class: Nervous system disorders ([1]; 30 mg b.d. (n = 12)): 5 (41.7) n (%) | TEAEs by system organ class: Respiratory, thoracic, and mediastinal disorders ([1]; 30 mg b.d. (n = 12)): 1 (8.3) n (%) | TEAEs by system organ class: Skin and subcutaneous-tissue disorders ([1]; 30 mg b.d. (n = 12)): 1 (8.3) n (%) | Patients With an AE: Any AE ([1]; 30 mg b.d. (n = 12)): 7 (58.3) n (%) | Patients With an AE: Any SAE ([1]; Total, all doses (N = 37)): 0 (0.0) n (%) | Patients With an AE: Any TEAE ([1]; Total, all doses (N = 37)): 20 (54.1) n (%) | Patients With an AE: TEAE leading to study discontinuation ([1]; Total, all doses (N = 37)): 1 (2.7) n (%) | Patients With an AE: TEAE related to study drug ([1]; Total, all doses (N = 37)): 9 (24.3) n (%) | Patients with a TEAE: Abdominal distension ([1]; Total, all doses (N = 37)): 1 (2.7) n (%) | Patients with a TEAE: Abdominal pain ([1]; Total, all doses (N = 37)): 1 (2.7) n (%) | Patients with a TEAE: Anal incontinence ([1]; Total, all doses (N = 37)): 1 (2.7) n (%) | Patients with a TEAE: Cellulitis ([1]; Total, all doses (N = 37)): 1 (2.7) n (%) | Patients with a TEAE: Constipation ([1]; Total, all doses (N = 37)): 1 (2.7) n (%) | Patients with a TEAE: Cough ([1]; Total, all doses (N = 37)): 2 (5.4) n (%) | Patients with a TEAE: Diarrhea ([1]; Total, all doses (N = 37)): 3 (8.1) n (%) | Patients with a TEAE: Dizziness ([1]; Total, all doses (N = 37)): 3 (8.1) n (%) | Patients with a TEAE: Dyspepsia ([1]; Total, all doses (N = 37)): 1 (2.7) n (%) | Patients with a TEAE: Dyspnea ([1]; Total, all doses (N = 37)): 1 (2.7) n (%) | Patients with a TEAE: Fatigue ([1]; Total, all doses (N = 37)): 4 (10.8) n (%) | Patients with a TEAE: Feces discolored ([1]; Total, all doses (N = 37)): 5 (13.5) n (%) | Patients with a TEAE: Granuloma skin ([1]; Total, all doses (N = 37)): 1 (2.7) n (%) | Patients with a TEAE: Headache ([1]; Total, all doses (N = 37)): 7 (18.9) n (%) | Patients with a TEAE: Injection-site pain ([1]; Total, all doses (N = 37)): 1 (2.7) n (%) | Patients with a TEAE: Lethargy ([1]; Total, all doses (N = 37)): 1 (2.7) n (%) | Patients with a TEAE: Ligament sprain ([1]; Total, all doses (N = 37)): 1 (2.7) n (%) | Patients with a TEAE: Lip dry ([1]; Total, all doses (N = 37)): 1 (2.7) n (%) | Patients with a TEAE: Nasal congestion ([1]; Total, all doses (N = 37)): 1 (2.7) n (%) | Patients with a TEAE: Nasopharyngitis ([1]; Total, all doses (N = 37)): 1 (2.7) n (%) | Patients with a TEAE: Nausea ([1]; Total, all doses (N = 37)): 2 (5.4) n (%) | Patients with a TEAE: Nevus hemorrhage ([1]; Total, all doses (N = 37)): 1 (2.7) n (%) | Patients with a TEAE: Palpitations ([1]; Total, all doses (N = 37)): 1 (2.7) n (%) | Patients with a TEAE: Papule ([1]; Total, all doses (N = 37)): 1 (2.7) n (%) | Patients with a TEAE: Pyrexia ([1]; Total, all doses (N = 37)): 1 (2.7) n (%) | Patients with a TEAE: Skin abrasion ([1]; Total, all doses (N = 37)): 1 (2.7) n (%) | Patients with a TEAE: Sneezing ([1]; Total, all doses (N = 37)): 1 (2.7) n (%) | Patients with a TEAE: Tonsillitis ([1]; Total, all doses (N = 37)): 1 (2.7) n (%) | Patients with a TEAE: Vomiting ([1]; Total, all doses (N = 37)): 2 (5.4) n (%) | TEAEs by system organ class: Cardiac disorders ([1]; Total, all doses (N = 37)): 1 (2.7) n (%) | TEAEs by system organ class: Gastrointestinal disorders ([1]; Total, all doses (N = 37)): 12 (32.4) n (%) | TEAEs by system organ class: General disorders and administration-site conditions ([1]; Total, all doses (N = 37)): 5 (13.5) n (%) | TEAEs by system organ class: Injury, poisoning, and procedural complications ([1]; Total, all doses (N = 37)): 2 (5.4) n (%) | TEAEs by system organ class: Neoplasms benign, malignant, and unspecified ([1]; Total, all doses (N = 37)): 1 (2.7) n (%) | TEAEs by system organ class: Nervous system disorders ([1]; Total, all doses (N = 37)): 9 (24.3) n (%) | TEAEs by system organ class: Respiratory, thoracic, and mediastinal disorders ([1]; Total, all doses (N = 37)): 4 (10.8) n (%) | TEAEs by system organ class: Skin and subcutaneous-tissue disorders ([1]; Total, all doses (N = 37)): 2 (5.4) n (%) | Patients With an AE: Any AE ([1]; Total, all doses (N = 37)): 21 (56.8) n (%) | Changes from baseline in vital signs or 12-lead electrocardiogram results ([1]; all doses): No clinically meaningful changes | Patients with laboratory abnormalities considered as TEAEs or SAEs ([1]; all doses): No patients | Children who experienced a TEAE ([1]; all doses, N = 37): 54% | Children with a TEAE related to the study drug ([1]; all doses, N = 37): 24% | Deaths or SAEs ([1]; all doses, N = 37): no deaths or SAEs | Drug-related TEAE anal incontinence ([1]; all doses, N = 37): 1 patient | Drug-related TEAE constipation ([1]; all doses, N = 37): 1 patient | Drug-related TEAE diarrhea ([1]; all doses, N = 37): 2 n | Drug-related TEAE dizziness ([1]; all doses, N = 37): 2 n | Drug-related TEAE dyspepsia ([1]; all doses, N = 37): 1 patient | Drug-related TEAE dyspnea ([1]; all doses, N = 37): 1 patient | Drug-related TEAE fatigue ([1]; all doses, N = 37): 2 n | Drug-related TEAE feces discoloration ([1]; all doses, N = 37): 5 n | Drug-related TEAE headache ([1]; all doses, N = 37): 3 n | Drug-related TEAE lethargy ([1]; all doses, N = 37): 1 patient | Drug-related TEAE nausea ([1]; all doses, N = 37): 1 patient | Drug-related TEAE palpitations ([1]; all doses, N = 37): 1 patient | Drug-related TEAE papule ([1]; all doses, N = 37): 1 patient | Gastrointestinal TEAEs, overall ([1]; all doses, N = 37): 32% | Nervous system disorders TEAEs, overall ([1]; all doses, N = 37): 24% | TEAE abdominal distension, number of children ([1]; all doses, N = 37): 1 n | TEAE abdominal pain, number of children ([1]; all doses, N = 37): 1 n | TEAE anal incontinence, number of children ([1]; all doses, N = 37): 1 n | TEAE constipation, number of children ([1]; all doses, N = 37): 1 n | TEAE diarrhea, number of children ([1]; all doses, N = 37): 3 n | TEAE dizziness, number of children ([1]; all doses, N = 37): 3 n | TEAE dyspepsia, number of children ([1]; all doses, N = 37): 1 n | TEAE fecal discoloration, number of children ([1]; all doses, N = 37): 5 n | TEAE headache, number of children ([1]; all doses, N = 37): 7 n | TEAE lethargy, number of children ([1]; all doses, N = 37): 1 n | TEAE nausea, number of children ([1]; all doses, N = 37): 2 n | TEAE vomiting, number of children ([1]; all doses, N = 37): 2 n | Children who experienced a TEAE ([1]; all doses, N = 37, listed as ferric maltol): 54.1% | Severity of TEAEs ([1]; all doses, all recovered or resolved): mild or moderate | Hemoglobin concentrations versus placebo ([2]; patients with IBD, over 12 weeks, ref [19]): significantly increased hemoglobin concentrations compared with placebo | Incidence of gastrointestinal TEAEs ([2]; phase 3 trial in adults with IBD, ref [19],[20]): 38% | Dose dependence of changes in serum iron concentrations [3]: not dose-dependent | Iron uptake (serum iron and TSAT) ([3]; days 1 and 10, ITT population): increased iron uptake
